According to publication PMC11172786, “Melatonin-Regulated Chaperone Binding Protein Plays a Key Role in Cadmium Stress Tolerance in Rice, Revealed by the Functional Characterization of a Novel Serotonin N-Acetyltransferase 3 (SNAT3) in Rice” (International Journal of Molecular Sciences, 2024):

B1: OsSNAT3 (OsSNAT3-His6) (Oryza sativa Japonica Group) (protein)
chain: MGAGEGDAAAGNKEKGGGGGVDRTSLDGVRDKNVMQLKKLNTALFPVRYNEKYYHDTIASKEFSKLAYYSDICVGAIACRLEKKEGGAVCVYIMTLGVLAPYRSLGIGSKLLNHVIDLCEKQNIPEIYLHVQTNNDDAIAFYKKFGFEITKTIEKYYKNITPPDCYVLTKFIGQAATKK
notes: cDNA-derived N-terminus MGAGEG, C-terminus QAATKK

Tests used:
[1] = target: T1, OsSNAT3 (OsSNAT3-His6) (Oryza sativa, UniProt B7F8K4); assay: inhibition of serotonin N-acetylation, HPLC; assay type: biochemical; conditions: 0.5 mM serotonin and 0.5 mM amine, pH 8.8, 55 °C; possible alternative substrate; tag form not stated for this figure
T1 construct: cDNA-derived N-terminus MGAGEG, C-terminus QAATKK
T1 sequence (B7F8K4 1-179): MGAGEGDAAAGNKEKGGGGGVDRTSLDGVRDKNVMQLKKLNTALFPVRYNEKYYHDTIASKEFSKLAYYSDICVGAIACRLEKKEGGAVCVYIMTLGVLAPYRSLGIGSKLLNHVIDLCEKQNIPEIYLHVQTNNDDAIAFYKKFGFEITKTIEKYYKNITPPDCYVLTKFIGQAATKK

[2] = substrate: COc1ccc2[nH]cc(CCN)c2c1; assay: HPLC detection of melatonin, Lineweaver-Burk; assay type: biochemical, Oryza sativa; conditions: 0.5 mM acetyl-CoA, 100 mM potassium phosphate pH 8.8, 45 °C
[3] = substrate: NCCc1c[nH]c2ccc(O)cc12; assay: HPLC detection of N-acetylserotonin, Lineweaver-Burk; assay type: biochemical, Oryza sativa; conditions: 0.5 mM acetyl-CoA, 100 mM potassium phosphate pH 8.8, 45 °C

Row | Molecule | SNAT activity with 0.5 mM amine [1] | Km [2] [µM] | Km [3] [µM]
1 | NCCCCNCCCN [spermidine] | OsSNAT3 activity was strongly inhibited by spermidine and octopamine (Figure 3C) | – | –
2 | NCCc1ccc(O)c(O)c1 [dopamine] | significantly inhibited by putrescine and dopamine | – | –
3 | NC[C@H](O)c1ccc(O)cc1 [octopamine] | OsSNAT3 activity was strongly inhibited by spermidine and octopamine (Figure 3C) | – | –
4 | NCCCCN [putrescine] | significantly inhibited by putrescine and dopamine | – | –
5 | B1 | – | 1587 | 1152
